Laboratory results reported in patent publication US20020090341A1, “Method” (NYCOMED IMAGING AS, priority 1997, published 2002).
Read-outs that look alike come from different tables or passages of the source.

Experiments:
[1] = tested on: regionally ischemic heart; details: for Myocardial enhancement: normal myocardium
Method: Sprague-Dawley rats (250-300 g) were anaesthetised with 50 mg/kg sodium pentobarbital and mechanically ventilated after tracheostomy. For bolus injection of the contrast agent, a catheter was placed in the femoral vein. In order to produce regional ischemia, left thoracotomy was performed followed by occlusion of the anterior branch of the left coronary artery. The potential of various doses of MnDPDP in demarcating regional ischemia was determined. Four groups of animals were designed, each group (n=7-8 rats) received one bolus dose (1 ml/kg) of MnDPDP (0.005, 0.010, 0.020, or 0.040 mmol/kg). MR imaging was performed between 15-20 mins after acute coronary occlusion.
ECG-gated inversion recovery echoplanar images were acquired using a GE Omega 2.0 T system and a home-built 5.6 cm birdcage imaging coil. A blipped EPI of 64×64 points to define a […] (FOV) of 40×40 mm was used. TE was set to 10 msec by acquiring an asymmetric echo. Inversion recovery was accomplished using a composite non-selective inversion pulse which was carefully optimized prior to administration of the contrast medium. Shortly after the occlusion of the coronary vessel (15-25 mins), IR EP imaging was used to monitor bolus passage of MnDPDP through the regionally ischemic heart. Fully relaxed T1-sensitive inversion recovery EP images (TR=5 s) were acquired in a set of 16 images. Then, 32 inversion-recovery echoplanar images every 2 secs were obtained with inversion time of 700 msecs (to nullify myocardial signal) to monitor the dynamic T1 changes in myocardial signal intensity during the passage of the contrast medium. Changes in myocardial signal as a function of time were plotted. ROIs were obtained from non-ischemic and ischemic myocardium as well as from LV chamber blood. ROIs were determined on images acquired post-contrast injection, where the ischemic region is clearly defined. Alterations in signal intensity were referred to that of fully relaxed intensity (=100%).
At the conclusion of the imaging protocol, the presence of coronary occlusion and acute ischemia was confirmed at postmortem by injecting 0.5 ml/kg phthalocyanine blue dye intravenously. Blue dye was then allowed to circulate for 3 mins before the heart was excised.

[2] = tested on: ex vivo guinea pig hearts; details: for T1 relaxation time: LV tissue, 0.234 T
Method: Guinea pigs (450-500 g) were anaesthetised with sodium pentobarbital (intraperiotenal injection 100 mg). Hearts were rapidly excised and connected to the aortic cannula of a standard Langendorff perfusion system with conditions preset at 37° C. Perfusion with glucose-containing Krebs Henseleit's bicarbonate buffer (Krebs buffer) was maintained in the constant flow mode during the entire experiment by use of a finely adjustable pump. Under normal perfusion conditions coronary flow rate (CFR) was […] and during global, low flow ischemia 0.25 ml/min (92% reduction of normal CFR). Left ventricular (LV) developed pressure (LVDP) was measured by use of a LV fluid-filled balloon connected to a pressure transducer and recording device. At the end of the experiments excised samples from the LV were freeze-clamped, freeze-dried and prepared for analysis of LV contents of Mn metal by atomic absorbtion spectrophotometry and of ATP by high pressure liquid chromatography. Fresh, non-clamped LV samples were taken for immediate (within 30 min) measurements of tissue longitudinal (T1) relaxation time by use of a Bruker Minispec PC 110 spectrometer operating at 0.234 T and at a proton frequency of 10 MHz.
In normal perfusion experiments (series A) hearts were subjected to a 20 min control period before being perfused for 5 min with ascending concentrations (0-3000 μM) of MnDPDP present in the Krebs buffer. This was followed by 5 min perfusion with buffer only to ensure an effective washout of residual extracellular MnDPDP. In global ischemia experiments hearts were perfused at low flow (92% CFR reduction) with normal Krebs buffer. After different durations (0, 15, 30, 90, and 120 min) of ischemia MnDPDP (1000 μM, 3000 μM) was included in the buffer for a final 5 min period of low flow ischemia. The experiments were ended by 5 min perfusion at normal flow with anoxic and calcium-free Krebs buffer to ensure washout of residual extracellular MnDPDP without reactivating normal cardiac function. In the results (series B) the ischemia durations are presented as 0-5 min, 15-20 min, 30-35 min, 90-95 min, and 120-125 min.

[3] = MnDPDP 300 μM, versus control hearts
[4] = MnDPDP 1000 μM, versus control hearts
[5] = MnDPDP 3000 μM, versus control hearts

For `Cc1ncc(COP(=O)(O)O)c(CN(CCN(CC(=O)[O-])Cc2c(COP(=O)(O)O)cnc(C)c2O)CC(=O)[O-])c1O.[Mn+2]` [MnDPDP, manganese (II) chelate of N,N′-bis-(pyridoxal-5-phosphate)-ethylenediamine-N,N′-diacetic acid], the “delineation of the ischemic region” value ([1]; 0.005 mmol/kg) was “insufficient to provide clear delineation of the ischemic region”, the “delineation of the ischemic region” value ([1]; 0.010, 0.020, and 0.040 mmol/kg) was “the ischemic region was identified as a region of very low signal” and the Myocardial enhancement ([1]; 5 micromole/kg bolus) was 23±2 % of fully relaxed images. For the same compound, the Myocardial enhancement ([1]; 10 micromole/kg bolus) was 28±2 % of fully relaxed images, the Myocardial enhancement ([1]; 20 micromole/kg bolus) was 34±5 % of fully relaxed images and the Myocardial enhancement ([1]; 40 micromole/kg bolus) was 48±4 % of fully relaxed images. For the same compound, the “Tissue Mn content” value ([2]; MnDPDP 30 μM 5 min, then 5 min washout, n = 6, mean (SD)) was 11.0(1.5) μmole/100 g dry wt, the T1 relaxation time ([2]; MnDPDP 30 μM, n = 6, mean (SD)) was 871(93) msec and the “Tissue Mn content” value ([2]; MnDPDP 100 μM 5 min, then 5 min washout, n = 6, mean (SD)) was 12.2(2.4) μmole/100 g dry wt. For the same compound, the T1 relaxation time ([2]; MnDPDP 100 μM, n = 6, mean (SD)) was 808(81) msec, the “depression of LVDP” value ([2]; MnDPDP 300 μM) was 10% and the “Tissue Mn content” value ([2]; MnDPDP 300 μM 5 min, then 5 min washout, n = 6, mean (SD)) was 23.2(4.1) μmole/100 g dry wt. The “fold increase in Mn content” value [2, 3] was 5-6 fold, the “reduction in T1” value [2, 3] was 40% and the T1 relaxation time ([2]; MnDPDP 300 μM, n = 6, mean (SD)) was 619(18) msec. For the same compound, the “Tissue Mn content” value ([2]; MnDPDP 1000 μM 5 min, then 5 min washout, n = 6, mean (SD)) was 45.4(10.8) μmole/100 g dry wt, the “factor by which tissue Mn content was raised above the control level in non-treated hearts” value ([2]; MnDPDP 1000 μM at onset (0-5 min) of ischemia) was 2-3 and the “Tissue Mn content” value ([2]; MnDPDP 1000 μM during last 5 min, ischemia 0-5 min, n = 4, mean (SD)) was 10.5(3.6) μmole/100 g dry wt. For the same compound, the “Tissue Mn content” value ([2]; MnDPDP 1000 μM during last 5 min, ischemia 15-20 min, n = 4, mean (SD)) was 9.9(2.3) μmole/100 g dry wt, the “Tissue Mn content” value ([2]; MnDPDP 1000 μM during last 5 min, ischemia 30-35 min, n = 4, mean (SD)) was 4.3(1.6) μmole/100 g dry wt and the “Tissue Mn content” value ([2]; MnDPDP 1000 μM during last 5 min, ischemia 90-95 min, n = 4, mean (SD)) was 5.7(2.4) μmole/100 g dry wt. The “Tissue Mn content” value ([2]; MnDPDP 1000 μM during last 5 min, ischemia 120-125 min, n = 4, mean (SD)) was 5.6(2.3) μmole/100 g dry wt, the “fold rise in Mn content” value [2, 4] was 11 fold and the “reduction in T1 values” [2, 4] was 55%. For the same compound, the T1 relaxation time ([2]; MnDPDP 1000 μM, n = 6, mean (SD)) was 461(85) msec, the “Tissue Mn content” value ([2]; MnDPDP 3000 μM 5 min, then 5 min washout, n = 6, mean (SD)) was 70.4(14.9) μmole/100 g dry wt and the “factor by which tissue Mn content was raised above the control level in non-treated hearts” value ([2]; MnDPDP 3000 μM at onset (0-5 min) of ischemia) was 4-5. The “Tissue Mn content” value ([2]; MnDPDP 3000 μM during last 5 min, ischemia 0-5 min, n = 4, mean (SD)) was 16.5(2.4) μmole/100 g dry wt, the “Tissue Mn content” value ([2]; MnDPDP 3000 μM during last 5 min, ischemia 15-20 min, n = 4, mean (SD)) was 12.9(4.0) μmole/100 g dry wt and the “Tissue Mn content” value ([2]; MnDPDP 3000 μM during last 5 min, ischemia 30-35 min, n = 4, mean (SD)) was 6.0(2.2) μmole/100 g dry wt. For the same compound, the “Tissue Mn content” value ([2]; MnDPDP 3000 μM during last 5 min, ischemia 90-95 min, n = 4, mean (SD)) was 7.2(2.8) μmole/100 g dry wt, the “fold rise in Mn content” value [2, 5] was 17 fold and the “reduction in T1 values” [2, 5] was 70%. The T1 relaxation time ([2]; MnDPDP 3000 μM, n = 6, mean (SD)) was 341(46) msec, the “tissue Mn contents, normal perfusion conditions relative to early ischemic conditions (0-5 min)” value ([2]; Table 1 versus Table 3) was “approximately 4 times” and the LVDP after washout ([2]; following 5 min of MnDPDP washout) was “returns rapidly to control values”. The LVDP during perfusion ([2]; higher concentrations of MnDPDP) was “falls rapidly” and the “tissue Mn content compared with normally perfused non-treated hearts” value ([2]; ischemic durations of 30-35 min, 90-95 min, and 120-125 min) was “not significantly different”.
